Experimental data: ChEMBL document CHEMBL6078645, “Expanding the Solvent/Protein Region Occupation of the Non-Nucleoside Reverse Transcriptase Inhibitor Binding Pocket for Improved Broad-Spectrum Anti-HIV-1 Efficacy: from Rigid Phenyl-Diarylpyrimidines to Flexible Hydrophilic Piperidine-Diarylpyrimidines” (J Med Chem, 2024)
Values after ≈ are worked out from the molar mass of the structure shown.

Experiments:
[1] = tested on: Human immunodeficiency virus 1; experiment: Antiviral activity against HIV-1 harboring Y188L mutant infected in human MT4 cells assessed as protection against virus-induced cytopathic effect incubated for 5 days by MTT assay; format: functional, organism-based; conditions: Human immunodeficiency virus 1, MT4, 120 h
[2] = tested on: Human immunodeficiency virus 1; experiment: Antiviral activity against wild type HIV-1 IIIB infected in human MT4 cells assessed as protection against virus-induced cytopathic effect incubated for 5 days by MTT assay; format: functional, organism-based; conditions: Human immunodeficiency virus 1, IIIB, MT4, 120 h
[3] = tested on: Human immunodeficiency virus 1; experiment: Antiviral activity against HIV-1 harboring RES056 mutant infected in human MT4 cells assessed as protection against virus-induced cytopathic effect incubated for 5 days by MTT assay; format: functional, organism-based; conditions: Human immunodeficiency virus 1, MT4, 120 h
[4] = tested on: Human immunodeficiency virus 1; experiment: Antiviral activity against HIV-1 harboring F227L/V106A double mutant infected in human MT4 cells assessed as protection against virus-induced cytopathic effect incubated for 5 days by MTT assay; format: functional, organism-based; conditions: Human immunodeficiency virus 1, MT4, 120 h
[5] = target: T1, Human immunodeficiency virus type 1 reverse transcriptase (Human immunodeficiency virus 1, UniProt Q72547); experiment: Inhibition of wildtype recombinant HIV-1 Reverse transcriptase incubated for 40 mins by spectrofluorometric analysis
[6] = Cytotoxicity against human MT4 cells assessed as reduction in cell viability incubated for 5 days by MTT assay; format: toxicity, cell-based; conditions: MT4 cells, time 5 day
[7] = Selectivity index, ratio of CC50 for cytotoxicity against human MT4 cells assessed as reduction in cell viability to EC50 for antiviral activity against wild type HIV-1 IIIB infected in human MT4 cells assessed as protection against virus-induced cytopathic effect; format: toxicity, cell-based; conditions: MT4 cells, read-out: Ratio CC50/EC50
[8] = tested on: Human immunodeficiency virus 1; experiment: Antiviral activity against HIV-1 harboring Y181C mutant infected in human MT4 cells assessed as protection against virus-induced cytopathic effect incubated for 5 days by MTT assay; format: functional, organism-based; conditions: Human immunodeficiency virus 1, MT4, 120 h
[9] = target: T1, Human immunodeficiency virus type 1 reverse transcriptase; experiment: Inhibition of HIV-1 reverse transcriptase
[10] = tested on: Human immunodeficiency virus 1; experiment: Antiviral activity against HIV-1 harboring K103N mutant infected in human MT4 cells assessed as protection against virus-induced cytopathic effect incubated for 5 days by MTT assay; format: functional, organism-based; conditions: Human immunodeficiency virus 1, MT4, 120 h
[11] = tested on: Human immunodeficiency virus 1; experiment: Antiviral activity against HIV-1 harboring E138K mutant infected in human MT4 cells assessed as protection against virus-induced cytopathic effect incubated for 5 days by MTT assay; format: functional, organism-based; conditions: Human immunodeficiency virus 1, MT4, 120 h
[12] = tested on: Human immunodeficiency virus 1; experiment: Antiviral activity against HIV-1 harboring L100I mutant infected in human MT4 cells assessed as protection against virus-induced cytopathic effect incubated for 5 days by MTT assay; format: functional, organism-based; conditions: Human immunodeficiency virus 1, MT4, 120 h
[13] = Solubility of compound in phosphate buffer at pH 2 incubated for 24 hrs by HPLC analysis; format: physicochemical
[14] = Solubility of compound in phosphate buffer at pH 7 incubated for 24 hrs by HPLC analysis; format: physicochemical
[15] = Solubility of compound incubated for 24 hrs by HPLC analysis; format: physicochemical
[16] = Solubility of compound in phosphate buffer at pH 7.4 incubated for 24 hrs by HPLC analysis; format: physicochemical

| Compound | EC50 [1] | EC50 [2] | EC50 [3] | EC50 [4] | IC50 [5] | CC50 at 120 h [6] | selectivity ratio [7] | EC50 [8] | EC50 [9] | EC50 [10] | EC50 [11] | EC50 [12] | solubility at 24 h [13] | solubility at 24 h [14] | solubility at 24 h [15] | solubility at 24 h [16] |
| --- | --- | --- | --- | --- | --- | --- | --- | --- | --- | --- | --- | --- | --- | --- | --- | --- |
| Cc1cc(-c2ccncc2)cc(C)c1Oc1nc(NC2CCN(Cc3ccc(S(N)(=O)=O)cc3)CC2)ncc1CO | 177 nM | 29 nM | 329 nM | 65 nM | 192000 nM | > 218000 nM | > 7620 | – | – | – | – | – | – | – | – | – |
| Cc1cc(-c2ccc(C#N)cc2)cc(C)c1Oc1nc(NC2CCN(Cc3ccc(C#N)cc3)CC2)ncc1CO | 59 nM | – | 294 nM | 71 nM | 297 nM | 4830 nM | 684 | 22 nM | 7 nM | 6 nM | 21 nM | 9 nM | – | – | – | – |
| CNS(=O)(=O)c1ccc(CN2CCC(Nc3ncc(CO)c(Oc4c(C)cc(-c5ccc(C#N)cc5)cc4C)n3)CC2)cc1 | 31 nM | – | 66 nM | 52 nM | 497 nM | 6680 nM | 1190 | 19 nM | 6 nM | 10 nM | 30 nM | 8 nM | – | – | – | – |
| Cc1cc(-c2ccncc2)cc(C)c1Oc1nc(NC2CCN(Cc3ccc(C(=O)NCCO)cc3)CC2)ncc1CO | 2010 nM | 39 nM | 5680 nM | 2830 nM | 222 nM | > 215000 nM | > 5500 | – | – | – | – | – | – | – | – | – |
| Cc1cc(-c2ccc(C#N)cc2)cc(C)c1Oc1nc(NC2CCN(Cc3ccc(S(N)(=O)=O)cc3)CC2)ncc1CO.Cl | – | – | – | – | – | – | – | – | – | – | – | – | > 56400 µg/mL | < 1 µg/mL | 5270 µg/mL | < 1 µg/mL |
| COCCNC(=O)c1ccc(CN2CCC(Nc3ncc(CO)c(Oc4c(C)cc(-c5ccncc5)cc4C)n3)CC2)cc1 | 46 nM | 10 nM | 58 nM | 64 nM | – | 110000 nM | 11200 | 34 nM | – | 5 nM | 50 nM | 11 nM | – | – | – | – |
| Cc1cc(-c2ccc(C#N)cc2)cc(C)c1Oc1nc(NC2CCN(Cc3ccc(C(=O)NCCCO)cc3)CC2)ncc1CO | 114 nM | – | 272 nM | 55 nM | 463 nM | 17300 nM | 2630 | 29 nM | 7 nM | 7 nM | 26 nM | 10 nM | – | – | – | – |
| Cc1cc(-c2ccncc2)cc(C)c1Oc1nc(NC2CCN(Cc3ccc(C(N)=O)cc3)CC2)ncc1CO | 210 nM | 9 nM | 1470 nM | 229 nM | 183 nM | > 232000 nM | > 24800 | – | – | – | – | – | – | – | – | – |
| Cc1cc(-c2ccc(C#N)cc2)cc(C)c1Oc1nc(NC2CCN(Cc3ccc(S(C)(=O)=O)cc3)CC2)ncc1CO | 58 nM | – | 163 nM | 52 nM | 270 nM | 9170 nM | 1190 | 19 nM | 8 nM | 18 nM | 36 nM | 8 nM | – | – | – | – |
| COCCNS(=O)(=O)c1ccc(CN2CCC(Nc3ncc(CO)c(Oc4c(C)cc(-c5ccncc5)cc4C)n3)CC2)cc1 | 48 nM | 9 nM | 157 nM | 122 nM | – | 45900 nM | 5130 | 39 nM | – | 7 nM | 48 nM | 9 nM | – | – | – | – |
| CNC(=O)c1ccc(CN2CCC(Nc3ncc(CO)c(Oc4c(C)cc(-c5ccncc5)cc4C)n3)CC2)cc1 | 122 nM | 11 nM | 925 nM | 133 nM | 253 nM | > 226000 nM | > 20200 | – | – | – | – | – | – | – | – | – |
| COCCNS(=O)(=O)c1ccc(CN2CCC(Nc3ncc(CO)c(Oc4c(C)cc(-c5ccc(C#N)cc5)cc4C)n3)CC2)cc1 | 47 nM | – | 45 nM | 34 nM | 575 nM | 6710 nM | 1030 | 34 nM | 6 nM | 7 nM | 40 nM | 6 nM | – | – | – | – |
| Cc1cc(-c2ccncc2)cc(C)c1Oc1nc(NC2CCN(Cc3cccc(C(N)=O)c3)CC2)ncc1CO | 101 nM | 10 nM | 883 nM | 98 nM | 188 nM | > 232000 nM | > 23800 | – | – | – | – | – | – | – | – | – |
| COCCNC(=O)c1ccc(CN2CCC(Nc3ncc(CO)c(Oc4c(C)cc(-c5ccc(C#N)cc5)cc4C)n3)CC2)cc1 | 49 nM | – | 44 nM | 42 nM | 509 nM | 17600 nM | 1860 | 23 nM | 9 nM | 7 nM | 19 nM | 6 nM | – | – | – | – |
| Cc1cc(-c2ccncc2)cc(C)c1Oc1nc(NC2CCN(Cc3ccc(S(=O)(=O)N4CCC(O)CC4)cc3)CC2)ncc1CO | 226 nM | 24 nM | 446 nM | 43 nM | – | 17600 nM | 750 | – | – | – | – | – | – | – | – | – |
| Cc1cc(-c2ccc(C#N)cc2)cc(C)c1Oc1nc(NC2CCN(Cc3ccc(CO)cc3)CC2)ncc1CO | 56 nM | 9 nM | 307 nM | 51 nM | – | 18400 nM | 1980 | – | – | – | – | – | – | – | – | – |
| Cc1cc(-c2ccc(C#N)cc2)cc(C)c1Oc1nc(NC2CCN(Cc3cccc(C#N)c3)CC2)ncc1CO | 51 nM | – | 990 nM | 122 nM | 261 nM | 5810 nM | 711 | 18 nM | 8 nM | 16 nM | 55 nM | 12 nM | – | – | – | – |
| CNS(=O)(=O)c1ccc(CN2CCC(Nc3ncc(CO)c(Oc4c(C)cc(-c5ccncc5)cc4C)n3)CC2)cc1 | 100 nM | 14 nM | 405 nM | 234 nM | 198 nM | > 212000 nM | > 14800 | – | – | – | – | – | – | – | – | – |
| Cc1cc(C#N)cc(C)c1Oc1nc(Nc2ccc(C#N)cc2)nc(N)c1Br [ETRAVIRINE] | – | – | 37 nM | – | – | > 4610 nM | – | – | – | – | – | 6 nM | 127 µg/mL (≈ 292 µM) | < 1 µg/mL | < 1 µg/mL | < 1 µg/mL |
